Results: ChEMBL document CHEMBL3124785, “Discovery of 2-(1H-indazol-1-yl)-thiazole derivatives as selective EP(1) receptor antagonists for treatment of overactive bladder by core structure replacement” (Bioorg Med Chem Lett, 2014)
In brackets after ≈: the same amount, converted by molar mass.

Tests used:
[1] = Solubility of the compound in water; assay type: physicochemical
[2] = AUC (0 to infinity) in rat at 10 mg/kg, po; assay type: ADME, organism-based; set-up: time infinity, dose 10 mg/kg, route oral; details: plasma
[3] = Oral bioavailability in rat at 10 mg/kg; assay type: ADME, organism-based; details: in vivo
[4] = Cmax in rat at 10 mg/kg, po; assay type: ADME, organism-based; set-up: dose 10 mg/kg, route oral; details: in vivo
[5] = Apparent permeability in MDCK cells; assay type: ADME, cell-based, Canis lupus familiaris; details: dog
[6] = Solubility of the compound at pH 6.8; assay type: physicochemical; details: buffer

solubility [1]: 37 µg/mL (≈ 95 µM) | AUC(0-inf) [2]: 9.27 µM·h | bioavailability [3]: 31% | Cmax [4]: 5.34 µM | Papp [5]: 17.8 ×10⁻⁶ cm/s | solubility [6]: 123 µg/mL (≈ 316 µM)
Structure (SMILES): O=C(O)c1csc(-n2nc(-c3ccccc3)c3ccc(C(F)(F)F)cc32)n1
